Reference: US20100022514A1, “Heterocycle Compounds and Methods of Use Thereof” (NORVARTIS AG, priority 2006, published 2010)
Where two headings read alike, the source gives them in different places.

Columns and labels:
[1] = target: T1, HDAC-1 (Homo sapiens, UniProt Q13547); experiment: Deacetylase fluorescence assay (HDAC-1); assay type: biochemical
T1 construct: made in house
Protocol: Conventional methods are used to express deacetylase enzymes and purify them from lysed cells. The following example describes an exemplary procedure, however equivalent procedures are within the scope of the invention.
The cell line used is a derivative of 293 cells overexpressing a fusion of the gene encoding each deacetylase protein with a nucleotide sequence encoding the Flag marker.
Cells are grown in Optimem, 2% Fetal Calf Serum, Pen/Strep. For enzyme preparation, Lysis buffer (IPLS) is 50 mM Tris-HCl, pH 7.5, 120 mM NaCl, 0.5 mM EDTA and 0.5% Nonidet P-40, to which is added one tablet of Protease inhibitors (Roche 11836170001) per 10 ml buffer. Other buffers are IPHS, which is IPLS containing 1 M NaCl; TBS (Sigma #T5912) dilute 10× stock to 1× with dH2O; HD buffer: 10 mM Tris pH 8.0 (1M Stock) 10 mM NaCl (5M Stock), 10% glycerol, and for dialysis: 400 μM PMSF is added (for 2 L: use 8 ml 100 mM Stock). Protease inhibitors (Complete mini, Boehringer Mannheim), 1 tablet/10 mL are added to all buffers but not used in buffers for enzyme assays.
Cells are harvested without using trypsin, and most cells are obtained easily in PBS, with gentle striking or agitation of flasks if necessary. More adherent cells are scraped in PBS. Cells are grown in 500 cm^2 trays, from which about half of the media is aspirated (50 ml total), then cells are scraped in the rest of the media and transferred to a centrifuge tube. Trays are washed with 25 ml cold PBS, scraped again to collect additional cells, and centrifuged at 1500 rpm at 4° C. for 5 min. Cells are washed at least 3 times in PBS to remove growth media, pelleting cells after each wash by centrifugation at 1500 rpm for 5 minutes. After washing, PBS is removed and the resulting cell pellet frozen at −80° C. for storage prior to purification.
For purification, cells are resuspended in lysis buffer, 12 ml of IPLS for cells collected from 10 500 cm trays. Cells are lysed at 4° C. for 3 hrs with rocking, and debris is removed by centrifugation for 20 min at 17,000 rpm in 30 ml centrifuge tubes. If supernatant is not clear afterward, centrifugation of the supernatant is repeated. Protein concentration of the whole cell lysate is determined (generally in the range of about 2-5 mg/ml).
For immunoprecipitation per mg of protein, 15 μL of anti-Flag M2-Agarose Affinity beads (Sigma #A2220) is used. Beads are prepared by washing 3 times with 10× bead volume of PBS and 1 time with IPLS, with centrifugation of the washes at 1500 rpm for 5 min. Whole cell lysate is incubated with the Ab-beads overnight at 4° C. Then beads are centrifuged and washed in 5× volume of the following buffers: three times in IPLS (30 sec at 4° C., spin at 1500 RPM for 5 min); three times in IPHS; and three times in TBS buffer. After each centrifugation, the supernatant is aspirated, leaving the pellet as dry as possible but avoiding sucking up any of the beads.
To elute the enzyme, beads are resuspended in 5× bead volume of TBS with protease inhibitor (Roche 11836170001) 1 tablet/10 mL. Enzyme is eluted with 400 μg/mL Flag peptide (Sigma #F-3290) for 3 hrs at 4° C. on rotator. Then beads are centrifuged, and the supernatant is transferred to a new tube to which is added 1/10 volume of glycerol. The supernatant is transferred to a dialysis cassette (Pierce #66410) using a 3 cc syringe and 18 G needle, and is dialyze sup in 2 L HD buffer for 2 hrs at 4° C. (1 L/hour). The resulting purified deacetylase is divided into aliquots (300 μL/tube), is snap frozen in dry ice bath, and is stored at −80° C.
For assay of deacetylase an assay based on Deacetylase Fluorescent Activity Assay/Drug Discovery Kit (BioMol # AK500) is used, however any equivalent deacetylase assay is within the scope of the invention.
The Fluorescent Assay Buffer (FAB) contains: 25 mM Tris-HCl, pH 8.0, 137 mM NaCl, 2.7 mM KCl and 1 mM MgCl2. […]

[2] = tested on: p21 promoter (p21-luc) in H1299 cells; experiment: p21 promoter luciferase assay using stably transfected p21-luc in H1299 cells; assay type: cell-based; settings: Homo sapiens, NCI-H1299
Protocol: The cell lines used are derived from H1299 (p21-luc). The growth media used is RPMI 1640, 10% FBS, 1% Pen/Strep and the selection media added is 500 μg/mL Geneticin (Gibco). The buffer used is 5× cell culture lysis buffer (Promega #E1531), stored at −20 C and the Luciferase assay reagent (Promega #E1483) is stored at −70° C. The results of the assay are analyzed using Wallac Software.
To assay Luciferase, the cell culture medium is removed after one day of growth and the flasks are washed once with PBS. The cells are trypsinized in 20 mL of media and the trypsin is neutralized. The cells are counted (0.5-1 mL) on a Vi-Cell XR cell viability analyzer.
Cells are then diluted to a concentration of approximately 5000 cells/200 μL, and 190 μL samples are aliquoted into each well of a Costar white 96-well TC treated white bottom plate with lid (Costar #3917). Plates are then incubated overnight at 37 C.
After a further day, a sample of the compound is added to the wells for assay.
After a further day, the cells are lysed and the luciferase activity of the lysed cells is measured. Each well is washed twice with PBS and 20 μL/well of 1× cell culture lysis buffer (dilute 5× to 1× in distilled water) is added to each well. The microtiter plates are then shaken on a microtiter plate shaker for 20 minutes at room temperate at a speed setting of 5-6. After removal from the shaker, 100 μL of Luciferase Reagent is added to each well. Each microtiter plate is then read on Wallac Envision instrument.

T1 sequence (Q13547 whole entry): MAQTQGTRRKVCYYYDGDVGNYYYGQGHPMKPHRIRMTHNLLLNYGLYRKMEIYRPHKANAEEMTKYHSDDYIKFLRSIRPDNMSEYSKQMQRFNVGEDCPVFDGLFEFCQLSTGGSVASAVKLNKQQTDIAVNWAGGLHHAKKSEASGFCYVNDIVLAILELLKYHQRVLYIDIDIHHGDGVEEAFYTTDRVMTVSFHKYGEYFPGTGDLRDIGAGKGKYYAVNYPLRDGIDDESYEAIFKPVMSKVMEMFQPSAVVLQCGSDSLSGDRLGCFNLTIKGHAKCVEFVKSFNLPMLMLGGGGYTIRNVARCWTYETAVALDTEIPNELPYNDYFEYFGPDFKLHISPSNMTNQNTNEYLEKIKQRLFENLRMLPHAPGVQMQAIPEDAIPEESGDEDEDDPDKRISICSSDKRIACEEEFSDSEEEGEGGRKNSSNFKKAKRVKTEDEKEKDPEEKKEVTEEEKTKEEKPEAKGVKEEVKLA

SMILES | IC50 ([1]; read-out: HDAC-1 IC50) [nM] | AC50 [2] [nM] | IC50 [1] [nM]
CCc1nn2ccccc2c1CCN1CCc2cc(/C=C/C(=O)NO)ccc2C1 [Example 72, (E)-3-{2-[2-(2-Ethyl-pyrazolo[1,5-a]pyridin-3-yl)-ethyl]-1,2,3,4-tetrahydro-isoquinolin-6-yl}-N-hydroxy-acrylamide] | < 100 | 100 to 1000 | –
O=C(/C=C/c1ccc2c(c1)CN(C(=O)C1CC1)C2)NO [Example 23, (E)-3-(2-Cyclopropanecarbonyl-2,3-dihydro-1H-isoindol-5-yl)-N-hydroxy-acrylamide] | 100 to 1000 | > 1000 | –
COc1cccc(S(=O)(=O)N2CCc3cc(CCC(=O)NO)ccc3C2)c1 [Example 84, N-Hydroxy-3-[2-(3-methoxy-benzenesulfonyl)-1,2,3,4-tetrahydro-isoquinolin-6-yl]-propionamide] | 100 to 1000 | > 1000 | –
Cc1[nH]c2ccccc2c1CCN1CCc2cc(/C=C/C(=O)NO)ccc2C1 [Example 70, (E)-N-Hydroxy-3-{2-[2-(2-methyl-1H-indol-3-yl)-ethyl]-1,2,3,4-tetrahydro-isoquinolin-6-yl}-acrylamide] | – | 100 to 1000 | < 100
Cc1noc(-c2ccccc2)c1CCN1Cc2ccc(/C=C/C(=O)NO)cc2C1 [Example 34, (E)-N-Hydroxy-3-{2-[2-(3-methyl-5-phenyl-isoxazol-4-yl)-ethyl]-2,3-dihydro-1H-isoindol-5-yl}-acrylamide] | 100 to 1000 | > 1000 | –
COc1cccc(C(=O)N2CCc3ccc(CCC(=O)NO)cc3C2)c1 [Example 60, N-Hydroxy-3-[2-(3-methoxy-benzoyl)-1,2,3,4-tetrahydro-isoquinolin-7-yl]-propionamide] | 100 to 1000 | > 1000 | –
Cc1nn2ccccc2c1CCN1CCCc2cc(/C=C/C(=O)NO)ccc2C1 [Example 33, (E)-N-Hydroxy-3-{2-[2-(2-methyl-pyrazolo[1,5-a]pyridin-3-yl)-ethyl]-2,3,4,5-tetrahydro-1H-benzo[c]azepin-7-yl}-acrylamide] | < 100 | > 1000 | –
Cc1[nH]c2ccccc2c1CCN1Cc2ccc(/C=C/C(=O)NO)cc2C1 [Example 29, (E)-N-Hydroxy-3-{2-[2-(2-methyl-1H-indol-3-yl)-ethyl]-2,3-dihydro-1H-isoindol-5-yl}-acrylamide] | – | 100 to 1000 | < 100

Further lines, with some results ahead:

IC50 ([1]; read-out: HDAC-1 IC50) [nM] | SMILES | AC50 [2] [nM] | IC50 [1] [nM]
100 to 1000 | O=C(/C=C/c1ccc2c(c1)CN(S(=O)(=O)c1cccnc1)C2)NO [Example 7, (E)-N-Hydroxy-3-[2-(pyridine-3-sulfonyl)-2,3-dihydro-1H-isoindol-5-yl]-acrylamide] | > 1000 | –
100 to 1000 | COc1cccc(S(=O)(=O)N2CCc3cc(/C=C/C(=O)NO)ccc3C2)c1 [Example 83, (E)-N-Hydroxy-3-[2-(3-methoxy-benzenesulfonyl)-1,2,3,4-tetrahydro-isoquinolin-6-yl]-acrylamide] | > 1000 | –
100 to 1000 | COc1cccc(S(=O)(=O)N2CCc3ccc(/C=C/C(=O)NO)cc3C2)c1 [Example 55, (E)-N-Hydroxy-3-[2-(3-methoxy-benzenesulfonyl)-1,2,3,4-tetrahydro-isoquinolin-7-yl]-acrylamide] | > 1000 | –
100 to 1000 | COc1ccc(S(=O)(=O)N2CCc3cc(/C=C/C(=O)NO)ccc3C2)cc1 [Example 82, (E)-N-Hydroxy-3-[2-(4-methoxy-benzenesulfonyl)-1,2,3,4-tetrahydro-isoquinolin-6-yl]-acrylamide] | > 1000 | –
100 to 1000 | Cn1cnc(S(=O)(=O)N2Cc3ccc(/C=C/C(=O)NO)cc3C2)c1 [Example 15, (E)-N-Hydroxy-3-[2-(1-methyl-1H-imidazole-4-sulfonyl)-2,3-dihydro-1H-isoindol-5-yl]-acrylamide] | > 1000 | –
< 100 | Cc1cccc(S(=O)(=O)N2Cc3ccc(/C=C/C(=O)NO)cc3C2)c1 [Example 11, (E)-N-Hydroxy-3-[2-(toluene-3-sulfonyl)-2,3-dihydro-1H-isoindol-5-yl]-acrylamide] | > 1000 | –
